The results in this text go back to publication PMC11945542 (Viruses, 2025).

The subject of one data set is human adenovirus (HAdV). Nature of the data set: microbe, parasite or virus in culture. In kind it is cell-based, human adenovirus serotype 11 (RCAd11pGFP).
Data set [1] has as its system Rift Valley fever virus (RVFV). The data set is classed as cell-based. As to conditions: A549 cells, primary screening, 100 to 0.4 µM, 16 h post infection.
For data set [2], the target named is T1, TIE-2 (Homo sapiens, UniProt Q02763). Nature of the data set: Vanadate-induced TIE-2 receptor phosphorylation in CHO cells. As to conditions: Chinese hamster ovary (CHO) cells, read-out: IC50, vanadate-induced inhibition of TIE-2 receptor phosphorylation. More on the design: host or cells: Chinese hamster ovary (CHO) cells. The data set is classed as cell-based.

Data set [3] concerns SARS-CoV-2. Nature of the data set: microbe, parasite or virus in culture. The data set is classed as cell-based. As to conditions: for pIC50: read-out: IC50 against SARS-CoV-2.
Data set [4] relates to SARS-CoV-2. Nature of the data set: microbe, parasite or virus in culture. In kind it is cell-based. As to conditions: Calu-3 cells, 48 h, immunofluorescence of infected cells.
The subject of a further data set is adenovirus 5 (HAdV5). Nature of the data set: microbe, parasite or virus in culture. The data set is classed as cell-based. As to conditions: read-out: IC50 against HAdV type 5.
In data set [5] the test system is chikungunya virus (CHKV) 181/25. In kind it is cell-based.
Data set [6] relates to dengue virus (DNV) serotype 2 D2Y98P. Nature of the data set: microbe, parasite or virus in culture. The data set is classed as cell-based, dengue virus serotype 2. As to conditions: read-out: IC50 against dengue virus type 2.
Data set [7] concerns herpes simplex virus (HSV) 1 MacIntyre. The data set is classed as cell-based, herpes simplex virus 1.
Data set [8] concerns Herpes simplex virus (HSV) 2 MS. In kind it is cell-based, herpes simplex virus 2.
Data set [9] deals with influenza virus (INFV) H1N1 A/California/07/09. In kind it is cell-based. As to conditions: read-out: IC50 against influenza virus; Vero cells, MOI 0.01, 35 °C, TPCK trypsin.
The test system of data set [10] is Zika virus (ZIKV) FSS13025. The data set is classed as cell-based.
Data set [11] has as its system human cytomegalovirus (HCMV) Merlin strain. Nature of the data set: HCMV infectivity assay in human foreskin fibroblasts. As to conditions: 5 days, column of table headed IC50 [µM]. The data set is classed as cell-based.
Data set [12] concerns SARS-CoV-2. Nature of the data set: Primary human mucociliary airway (ALI) SARS-CoV-2 infection model. As to conditions: tested at 10 µM. The data set is classed as cell-based.
Data set [13] has as its system SARS-CoV-2. In kind it is in vivo, mice (B6.Cg-Tg(K18-ACE2)2Prlmn/J). As to conditions: K18-ACE2 mice, oral b.i.d., vs placebo.
The target in the next data set is CDK8 (Homo sapiens, UniProt P49336). Nature of the data set: Kinase inhibition profile: CDK8. The data set is classed as biochemical. As to conditions: kinase inhibition profile (DSTT, Cerep); preliminary.
The next data set addresses MAPK14 (Homo sapiens, UniProt Q16539). Nature of the data set: Kinase inhibition profile: MAPK14. The data set is classed as biochemical. As to conditions: kinase inhibition profile (DSTT, Cerep); preliminary.
For another data set, the target named is MAPK11 (Homo sapiens, UniProt Q15759). Nature of the data set: Kinase inhibition profile: MAPK11. The data set is classed as biochemical. As to conditions: kinase inhibition profile (DSTT, Cerep); preliminary.
The target in data set [14] is T1, TIE-2. Nature of the data set: Kinase inhibition profile: TIE-2. The data set is classed as biochemical. As to conditions: kinase inhibition profile (DSTT, Cerep); preliminary.
Another data set deals with KDR (Homo sapiens, UniProt P35968). Nature of the data set: Kinase inhibition profile: KDR.
[15] abbreviates: 60 mg/kg (Figure 7), 100 mg/kg (methods).

pEC50, pIC50: −log10 of the molar value. Entries after “also recorded” stand apart in the source; their conditions may differ. Like-named read-outs stand apart in the source and are kept apart here.

T1 sequence (Q02763 23-1124): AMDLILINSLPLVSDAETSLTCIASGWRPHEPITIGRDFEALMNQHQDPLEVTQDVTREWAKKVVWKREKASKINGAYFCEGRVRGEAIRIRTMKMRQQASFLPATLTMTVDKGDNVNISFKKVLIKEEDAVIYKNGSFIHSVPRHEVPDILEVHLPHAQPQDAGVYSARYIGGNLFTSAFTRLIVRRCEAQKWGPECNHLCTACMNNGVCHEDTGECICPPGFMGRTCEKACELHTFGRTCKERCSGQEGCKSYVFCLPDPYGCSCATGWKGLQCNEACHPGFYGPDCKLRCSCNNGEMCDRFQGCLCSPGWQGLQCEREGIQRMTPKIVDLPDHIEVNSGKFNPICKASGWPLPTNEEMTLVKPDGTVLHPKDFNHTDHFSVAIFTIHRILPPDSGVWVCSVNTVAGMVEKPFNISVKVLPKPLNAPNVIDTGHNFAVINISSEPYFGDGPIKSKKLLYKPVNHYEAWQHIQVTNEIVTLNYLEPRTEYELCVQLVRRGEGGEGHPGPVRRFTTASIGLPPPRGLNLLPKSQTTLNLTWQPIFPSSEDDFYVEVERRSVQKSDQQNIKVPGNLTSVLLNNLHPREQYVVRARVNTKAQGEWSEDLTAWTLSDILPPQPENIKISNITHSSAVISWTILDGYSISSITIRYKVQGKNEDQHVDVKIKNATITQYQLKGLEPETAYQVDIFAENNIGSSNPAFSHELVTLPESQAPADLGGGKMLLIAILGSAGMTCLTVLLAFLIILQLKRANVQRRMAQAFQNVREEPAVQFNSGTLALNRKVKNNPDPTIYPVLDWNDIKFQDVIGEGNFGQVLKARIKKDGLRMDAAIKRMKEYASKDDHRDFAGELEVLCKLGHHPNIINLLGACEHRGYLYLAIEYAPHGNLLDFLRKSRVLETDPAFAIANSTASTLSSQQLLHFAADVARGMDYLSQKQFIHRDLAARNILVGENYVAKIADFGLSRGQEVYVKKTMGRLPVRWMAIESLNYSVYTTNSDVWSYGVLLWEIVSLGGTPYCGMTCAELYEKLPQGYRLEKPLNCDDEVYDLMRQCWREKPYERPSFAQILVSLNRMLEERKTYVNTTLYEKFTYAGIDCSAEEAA
Chain of KDR (P35968 20-1356): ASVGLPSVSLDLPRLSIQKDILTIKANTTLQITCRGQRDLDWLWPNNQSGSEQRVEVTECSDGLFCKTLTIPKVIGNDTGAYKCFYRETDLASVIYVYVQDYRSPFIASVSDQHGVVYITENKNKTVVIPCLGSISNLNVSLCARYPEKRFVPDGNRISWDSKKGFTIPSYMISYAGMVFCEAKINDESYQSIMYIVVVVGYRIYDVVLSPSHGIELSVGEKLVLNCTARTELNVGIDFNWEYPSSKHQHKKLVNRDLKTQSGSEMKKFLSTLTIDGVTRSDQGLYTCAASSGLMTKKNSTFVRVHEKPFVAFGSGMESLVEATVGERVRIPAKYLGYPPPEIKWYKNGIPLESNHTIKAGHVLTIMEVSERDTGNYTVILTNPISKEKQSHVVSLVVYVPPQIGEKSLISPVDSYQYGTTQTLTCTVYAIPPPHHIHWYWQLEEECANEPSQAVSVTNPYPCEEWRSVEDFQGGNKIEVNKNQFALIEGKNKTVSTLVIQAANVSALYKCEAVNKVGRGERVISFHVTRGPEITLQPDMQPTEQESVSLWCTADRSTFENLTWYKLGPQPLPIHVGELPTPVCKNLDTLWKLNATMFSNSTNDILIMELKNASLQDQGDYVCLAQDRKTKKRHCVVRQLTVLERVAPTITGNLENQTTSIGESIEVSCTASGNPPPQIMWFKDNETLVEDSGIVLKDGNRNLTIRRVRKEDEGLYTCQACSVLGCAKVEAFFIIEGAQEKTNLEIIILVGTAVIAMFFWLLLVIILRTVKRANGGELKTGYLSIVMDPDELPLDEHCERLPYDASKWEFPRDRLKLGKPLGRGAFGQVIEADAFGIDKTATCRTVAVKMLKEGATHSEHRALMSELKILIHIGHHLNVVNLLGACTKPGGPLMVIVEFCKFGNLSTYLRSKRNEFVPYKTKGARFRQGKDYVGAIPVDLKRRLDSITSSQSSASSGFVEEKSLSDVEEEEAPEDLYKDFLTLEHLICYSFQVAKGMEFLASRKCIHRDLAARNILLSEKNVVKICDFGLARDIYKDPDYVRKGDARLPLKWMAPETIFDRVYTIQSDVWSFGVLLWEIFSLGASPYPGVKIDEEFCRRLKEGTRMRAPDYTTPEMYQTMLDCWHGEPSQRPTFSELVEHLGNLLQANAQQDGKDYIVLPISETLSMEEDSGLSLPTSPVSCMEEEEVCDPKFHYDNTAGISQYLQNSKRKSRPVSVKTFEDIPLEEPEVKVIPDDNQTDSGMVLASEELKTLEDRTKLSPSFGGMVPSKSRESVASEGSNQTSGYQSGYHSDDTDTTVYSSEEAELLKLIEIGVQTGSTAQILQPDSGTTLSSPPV
Chain of MAPK14 (Q16539 whole entry): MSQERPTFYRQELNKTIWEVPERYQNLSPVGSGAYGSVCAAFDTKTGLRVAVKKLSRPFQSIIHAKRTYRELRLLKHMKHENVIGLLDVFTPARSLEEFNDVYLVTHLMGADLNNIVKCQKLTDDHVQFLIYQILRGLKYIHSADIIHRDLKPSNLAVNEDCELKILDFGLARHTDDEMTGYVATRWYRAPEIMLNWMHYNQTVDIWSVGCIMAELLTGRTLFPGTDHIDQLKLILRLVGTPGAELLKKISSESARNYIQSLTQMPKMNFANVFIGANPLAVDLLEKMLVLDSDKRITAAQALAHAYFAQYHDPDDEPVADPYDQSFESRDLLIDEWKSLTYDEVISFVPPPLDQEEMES
Chain of MAPK11 (Q15759 whole entry): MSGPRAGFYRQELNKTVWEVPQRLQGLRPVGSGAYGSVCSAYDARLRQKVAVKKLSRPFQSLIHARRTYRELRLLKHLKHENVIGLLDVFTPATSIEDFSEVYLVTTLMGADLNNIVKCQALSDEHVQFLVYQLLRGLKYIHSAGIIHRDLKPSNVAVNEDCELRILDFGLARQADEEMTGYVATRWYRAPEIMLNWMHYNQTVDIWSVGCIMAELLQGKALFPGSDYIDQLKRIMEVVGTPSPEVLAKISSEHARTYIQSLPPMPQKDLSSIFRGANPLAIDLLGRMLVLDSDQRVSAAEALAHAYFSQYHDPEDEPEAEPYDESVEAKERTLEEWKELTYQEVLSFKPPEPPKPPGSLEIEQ
Chain of CDK8 (P49336 whole entry): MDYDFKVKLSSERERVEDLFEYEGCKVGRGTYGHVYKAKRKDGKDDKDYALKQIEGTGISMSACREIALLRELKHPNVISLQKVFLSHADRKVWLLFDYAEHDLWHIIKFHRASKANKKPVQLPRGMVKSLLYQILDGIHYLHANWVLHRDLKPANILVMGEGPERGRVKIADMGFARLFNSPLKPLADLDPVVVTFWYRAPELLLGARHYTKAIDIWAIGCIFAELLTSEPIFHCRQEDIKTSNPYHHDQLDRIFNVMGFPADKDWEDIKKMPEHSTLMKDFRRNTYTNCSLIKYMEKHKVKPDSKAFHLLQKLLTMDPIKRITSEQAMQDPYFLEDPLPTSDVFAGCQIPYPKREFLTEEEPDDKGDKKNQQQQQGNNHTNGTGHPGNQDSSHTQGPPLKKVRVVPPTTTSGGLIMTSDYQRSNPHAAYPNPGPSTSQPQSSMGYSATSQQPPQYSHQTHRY
Chain of CDK8 (P24863 whole entry partner): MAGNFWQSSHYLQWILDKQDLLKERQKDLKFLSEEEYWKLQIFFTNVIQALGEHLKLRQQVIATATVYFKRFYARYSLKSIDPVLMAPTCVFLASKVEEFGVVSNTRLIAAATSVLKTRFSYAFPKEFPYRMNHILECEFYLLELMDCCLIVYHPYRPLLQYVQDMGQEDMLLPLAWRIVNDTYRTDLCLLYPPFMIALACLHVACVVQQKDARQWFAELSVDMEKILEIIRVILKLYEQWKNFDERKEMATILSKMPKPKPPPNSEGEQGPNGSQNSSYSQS

As a reminder, the pIC50 is the negative decadic logarithm of the IC50, by convention in mol/L. Consider `CNC(=O)c1cc(Oc2ccc(NC(=O)Nc3cc(C(F)(F)F)ccc3-n3ccnc3)cc2)ccn1` [Compound 2], for which, in the data set with human adenovirus (HAdV), the “antiviral activity against HAdV (in words)” value is “did not have activity”. Besides, the “antiviral activity against RVFV (in words)” value in [1] is listed as “dose–response antiviral activity”. Also, the negative logarithm of the IC50 (pIC50) at TIE-2 [2] (unit given as nm) was 8.52.
By pEC50 is commonly meant the EC50 on a negative log10 scale, so that one unit is a factor of ten. As for `CNC(=O)c1cc(Oc2ccc(NC(=O)Nc3cc(C(F)(F)F)ccc3-n3cncn3)cc2)ccn1` [Compound 1], the pEC50 with human adenovirus (HAdV) (Human adenovirus sp., A549, 24 h, read-out: EC50 against HAdV) was 5.35. Also, the “antiviral activity against RVFV (in words)” value in data set [1] is “antiviral activity was seen at 25 µM”. Further, the “SI (selectivity index)” value in the data set with SARS-CoV-2 [3] (HeLa-ACE2 cells) was 5. Also, the negative logarithm of the IC50 (pIC50) in the data set on SARS-CoV-2 [3] (Severe acute respiratory syndrome coronavirus 2, HeLa-ACE2, 24 h) was 5.49; in the data set on adenovirus 5 (HAdV5) (Human mastadenovirus C, Vero), 5.93; in the data set on adenovirus 5 (HAdV5), 5.94; in [6] (Dengue virus, Vero), 5.07; in [6] it was 5.07; in [9], 4.40. Besides, the negative-log IC50 (pIC50) on TIE-2 [2] was 7.57. For the same molecule, the “IC50 against SARS-CoV-2” value with SARS-CoV-2 [4] is on record as “did not exhibit antiviral properties”. In addition, the “activity against CHKV” value in data set [5] is on record as “Not Active”. The “activity against HSV-1” value in data set [7] is recorded as “Not Active”. Also, in data set [8], the “activity against HSV-2” value was “Active”. Also, the “activity against ZIKV” value in data set [10] is recorded as “Not Active”. The “activity against HCMV” value in data set [11] is reported as “Active”.
For the molecule `CNC(=O)c1cc(Oc2ccc(NC(=O)Nc3cc(C)c(Cl)cc3-n3cccc3)cc2)ccn1` [Compound 4], the pIC50 is 6.30 with SARS-CoV-2 [3] (Severe acute respiratory syndrome coronavirus 2, HeLa-ACE2 cells, 24 h, immunofluorescence of infected cells); 5.11 with SARS-CoV-2 [4] (Severe acute respiratory syndrome coronavirus 2, read-out: IC50 against SARS-CoV-2); 6.22 with adenovirus 5 (HAdV5) (Human mastadenovirus C, Vero); 6.20 in the data set on adenovirus 5 (HAdV5); 8.00 in [6] (Dengue virus, Vero); 7.92 in [6]. In addition, the pIC50 in data set [9] was 4.97; at CDK8, 7.51; on MAPK14, 7.06; against MAPK11 it was 6.37; against KDR, 8.10; at TIE-2 [2] it was 6.90. For the same molecule, the “activity against CHKV” value in data set [5] (Vero cells, MOI 0.01, column of table headed IC50 [µM]) was “Not Active”. For the same molecule, in data set [7], the “activity against HSV-1” value is “Not Active”. Besides, the “activity against HSV-2” value in data set [8] is listed as “dose-dependent activity; also recorded: Active”. In [10], the “activity against ZIKV” value was “dose-dependent activity; also recorded: Active”. Further, the “inhibition of SARS-CoV-2 replication in primary human mucociliary airway model” value with SARS-CoV-2 [12] is given as “showed activity”. The “animal survival after lethal SARS-CoV-2 challenge” value with SARS-CoV-2 [13] (setting [15]) is “protective effect on animal survival; also recorded: increased survival”. Also, the “body weight loss after infection” value in the data set with SARS-CoV-2 [13] (setting [15]) is listed as “reduced body weight loss”. Also, the “viral titers in lungs” value in the data set on SARS-CoV-2 [13] (days 1, 3 and 6 after infection, qRT-PCR) is given as “statistically significant reduction in viral titers; also recorded: reduced viral load in lungs”. In addition, at TIE-2 [14], the “inhibition of TIE-2 (in words)” value is recorded as “strong inhibition”.
As to `O=C(Nc1ccc(Oc2ccncc2)cc1)Nc1cc(C(F)(F)F)ccc1-n1cncn1` [Compound 3], in the data set with human adenovirus (HAdV), the “antiviral activity against HAdV (in words)” value is reported as “most potent compound”. Besides, the “antiviral activity against RVFV (in words)” value in data set [1] is recorded as “most potent compound”. Further, the “host cell toxicity by visual observation” value in the data set on A549 cells is “displayed host cell toxicity at the highest concentrations”. Besides, the pIC50 on TIE-2 [2] was 7.44.
